From publication PMC11446937, “Bacteria from the Amycolatopsis genus associated with a toxic bird secrete protective secondary metabolites” (Nature Communications, 2024)

Experiments:
[1] = test system: B. licheniformis DSM13; test: Disc-diffusion antimicrobial assay, ecologically relevant indicator strains; format: cell-based, Bacillus licheniformis; details: Suppl. Table 16, pure compounds 10 mg/mL in DMSO, 5 µl per disc, control Cip 5 µg/mL (HCl), DMSO control 0, n=1
[2] = test system: K. rhizophila DSM11926; test: as above; format: cell-based, Kocuria rhizophila; details: Suppl. Table 16, pure compounds 10 mg/mL in DMSO, 5 µl per disc, control Cip 5 µg/mL (HCl), DMSO control 0, n=1
[3] = test system: B. thuringiensis DSM104061; test: as above; format: cell-based, Bacillus thuringiensis; details: Suppl. Table 16, pure compounds 10 mg/mL in DMSO, 5 µl per disc, control Cip 5 µg/mL (HCl), DMSO control 0, n=1
[4] = test system: P. monteilii DSM1388; test: as above; format: cell-based, Pseudomonas monteilii; details: Suppl. Table 16, pure compounds 10 mg/mL in DMSO, 5 µl per disc, control Cip 5 µg/mL (HCl), DMSO control 0, n=1
[5] = test system: C. albicans SC5314; test: as above; format: cell-based, Candida albicans; details: Suppl. Table 16, pure compounds 10 mg/mL in DMSO, 5 µl per disc, control Amph B 10 µg/mL (DMSO/H2O), DMSO control 0, n=1
[6] = test system: C. albicans C.A.; test: Disc-diffusion antimicrobial assay, clinically relevant indicator strains; format: cell-based; details: Suppl. Table 17; disc diffusion; 1 mg/mL in DMSO, 50 µl (50 µg) per disc; Amph B 10 µg/mL (DMSO/H2O); DMSO solvent control 0; n=3
Description: (§1) Disc-diffusion antimicrobial activity assays against clinically relevant indicator strains.
(§2) Pure compounds (1 mg/mL in DMSO or 50% MeOH) were tested for their antimicrobial activity against a variety of bacterial and fungal indicator strains: B. subtilis 6633 (Bs), S. aureus SG511 (Sa1), E. coli SG458 (Ec), P. aeruginosa K799/61 (Pa), S. aureus 134/94 (MRSA) (Sa2), E. faecalis 1528 (VRSA) (Ef), Mycobacterium vaccae 10670 (Mv), Sporobomyces salmonicolor 549 (Ss), C. albicans C.A. (Ca), and Penicillium notatum JP36 (Pn). On each disc, 50 µl compound solution (50 µg) were applied. Antimicrobial activity was determined by measuring the inhibition zone surrounding the disc in mm (n=3).
(§3) Bs: B. subtilis 663, Sa1: S. aureus SG511, Ec: E. coli SG458, Pa: P. aeruginosa K799/61, Sa2: S. aureus 134/94 (MRSA), Ef: E. faecalis 1528 (VRSA), Mv: M. vaccae 10670, Ss: S. salmonicolor 549, Ca: C. albicans C.A., Pn: P. notatum JP36. P: colonies in the inhibition zone, p: single colonies in the inhibition zone. A: no to low inhibition, n.t.: not tested.
(§4) B. subtilis 663, Sa1: S. aureus SG511, Ec: E. coli SG458, Ca: C. albicans C.A., P: colonies in the inhibition zone, […]

[7] = test system: Penicillium notatum JP36; test: as above; format: cell-based; details: Suppl. Table 17, 1 mg/mL in DMSO, 50 µl (50 µg) per disc, Amph B 10 µg/mL (DMSO/H2O), DMSO solvent control itself 12P, n=3
Description: as §1, §2, §3, §4

[8] = test system: Sporobomyces salmonicolor 549; test: as above; format: cell-based; details: Suppl. Table 17, 1 mg/mL in DMSO, 50 µl (50 µg) per disc, Amph B 10 µg/mL (DMSO/H2O), DMSO solvent control itself 13P, n=3
Description: as §1, §2, §3, §4

[9] = test system: cruzain; test: Fluorimetric protease inhibition assay; format: biochemical, Trypanosoma cruzi; details: 200 µM, 10 min, mean ± standard deviation, n=3
[10] = test system: cathepsin L; test: Fluorimetric protease inhibition assay; format: biochemical; details: 200 µM, 10 min, mean ± standard deviation, n=3
[11] = test system: cathepsin B; test: Fluorimetric protease inhibition assay; format: biochemical; details: 200 µM, 10 min, mean ± standard deviation, n=3
[12] = test system: DENV2 NS2B-NS3; test: Fluorimetric protease inhibition assay; format: biochemical; details: 200 µM, 10 min, mean ± standard deviation, n=3
[13] = test system: urokinase (uPA); test: Fluorimetric protease inhibition assay; format: biochemical; details: 200 µM, 10 min, mean ± standard deviation, n=3
[14] = test system: P. aeruginosa K799/61; details: Suppl. Table 17; disc diffusion; 1 mg/mL in DMSO, 50 µl (50 µg) per disc; Cip 5 µg/mL (H2O/HCl); DMSO solvent control itself 12P; n=3
[15] = test system: rhodesain; details: 200 µM
[16] = test system: SARS-CoV2 Mpro; details: 200 µM; fluorimetric, 10 min; mean ± standard deviation, n=3
[17] = test system: SARS-CoV PLpro; details: 200 µM; fluorimetric, 10 min; mean ± standard deviation, n=3
[18] = test system: ZIKV NS2B-NS3; details: 200 µM
[19] = test system: sortase A (SrtA); details: 200 µM
[20] = test system: B. subtilis 6633; test: Disc-diffusion antimicrobial assay, clinically relevant indicator strains; details: Suppl. Table 17, 1 mg/mL in DMSO, 50 µl (50 µg) per disc, Cip 5 µg/mL (H2O/HCl), DMSO solvent control itself 12P, n=3
[21] = test system: S. aureus SG511; test: as above; details: Suppl. Table 17, 1 mg/mL in DMSO, 50 µl (50 µg) per disc, Cip 5 µg/mL (H2O/HCl), DMSO solvent control itself 11P, n=3
[22] = test system: E. coli SG458; test: as above; details: Suppl. Table 17, 1 mg/mL in DMSO, 50 µl (50 µg) per disc, Cip 5 µg/mL (H2O/HCl), DMSO solvent control itself 12P, n=3
[23] = test system: S. aureus 134/94 (MRSA); test: as above; details: Suppl. Table 17, 1 mg/mL in DMSO, 50 µl (50 µg) per disc, Cip 5 µg/mL (H2O/HCl), DMSO solvent control 0, n=3
[24] = test system: E. faecalis 1528; test: as above; details: Suppl. Table 17, 1 mg/mL in DMSO, 50 µl (50 µg) per disc, Cip 5 µg/mL (H2O/HCl), DMSO solvent control itself 12p, n=3
[25] = test system: Mycobacterium vaccae 10670; test: as above; details: Suppl. Table 17, 1 mg/mL in DMSO, 50 µl (50 µg) per disc, Cip 5 µg/mL (H2O/HCl), DMSO solvent control itself 11P, n=3
[26] = test system: bacterial and fungal indicator strains; test: Disc-diffusion antimicrobial activity, indicator strains overall; format: cell-based; details: disc-diffusion assays of isolated compounds against indicator strains incl. K. rhizophila and C. albicans
Description: For more experimental details, see Supplementary Methods and Supplementary Tables 16–18.
Droplet-collapsing test of lipopetides.
Pure compounds were dissolved in water (final concentration 10 mM). Then, 20 µl of the solutions were placed on a hydrophobic surface (parafilm ‘M’). Tensioactive properties were determined by the observation of collapsed […]
33,34 Tween-20 (10 mM) was used as tensioactive positive control. For better visualization, 0.0025% crystal violet was added to the droplet, having no effect on the […]
Supplementary Figure 88. Droplet-collapsing assay testing the tensioactive properties of lipopeptides (n=3). […]
epidermidis DSM103867, as well as the skin pathogenic yeast C. albicans SC5314. […] Antimicrobial activity was determined by measuring the inhibition zone surrounding the disc in mm. […]
as §2, with “On each disc, 50 µl compound solution (50 µg) were applied.” left out, “(n=3). […]” for “(n=3).”

| Molecule | inhibition zone, Ca [6] | inhibition zone, Pn [7] | inhibition zone, Ss [8] | inhibition zone, Pa [14] | inhibition zone, Bs [20] | inhibition zone, Sa1 [21] | inhibition zone, Ec [22] | inhibition zone, Sa2 [23] | inhibition zone, Ef [24] | inhibition zone, Mv [25] | antimicrobial activity (in words) [26] | other results |
| --- | --- | --- | --- | --- | --- | --- | --- | --- | --- | --- | --- | --- |
| Pachycephalamide F [Compound 6] | 0 mm | 13p | 23p | 18P | 0 mm | 0 mm | 13P | 0 mm | 13p | 13p | – | inhibition zone, Bl [1]: 0 mm; inhibition zone, Kr [2]: 10 mm; inhibition zone, Bt [3]: 0 mm; inhibition zone, Pm [4]: 0 mm; inhibition zone, Ca2 [5]: 0 mm; Protease inhibition rate, Cruzain [9]: 60.52 ± 3.73%; Protease inhibition rate, Cathepsin L [10]: 58.30 ± 6.91%; Protease inhibition rate, Cathepsin B [11]: 57.57 ± 11.52%; Protease inhibition rate, DENV2 [12]: 18.47 ± 1.66%; Protease inhibition rate, uPA [13]: 0 ± 0%; Protease inhibition rate, Rhodesain [15]: 53.72 ± 0.31; Protease inhibition rate, Mpro (SARS-CoV2) [16]: 6.92 ± 5.97%; Protease inhibition rate, PLpro (SARS-CoV) [17]: 0 ± 0%; Protease inhibition rate, ZIKV [18]: 22.62 ± 1.19; Protease inhibition rate, SrtA [19]: 20.39 ± 3.94 |
| Demiguisin [Compound 7] | 0 mm | 0 mm | 0 mm | 0 mm | 0 mm | 0 mm | 0 mm | 0 mm | 0 mm | 0 mm | no antimicrobial effects | – |
| C[C@H]1CN2C(=O)/C=C/C=C/C=C/[C@@](C)(O)C(O[C@@H]3OC[C@@H](O)[C@H](O)[C@H]3N)\C=C/C=C/C=C/C=C\[C@@H]2[C@@H]1O (stereo partly shown) [Compound 8, ciromicin A, reference compound] | – | – | – | – | – | – | – | – | – | – | antifungal and antibacterial effects | – |
